Laboratory results as given in patent US20220135591A1, “HETEROCYCLIC COMPOUNDS AS INHIBITORS OF MONOACYLGLYCEROL LIPASE (MAGL)” (Hoffmann-La Roche Inc., priority 2019, published 2022).

Biological target: T1, MAGL (recombinant wild-type) (Homo sapiens, UniProt Q99685)
T1 sequence (Q99685 1-303): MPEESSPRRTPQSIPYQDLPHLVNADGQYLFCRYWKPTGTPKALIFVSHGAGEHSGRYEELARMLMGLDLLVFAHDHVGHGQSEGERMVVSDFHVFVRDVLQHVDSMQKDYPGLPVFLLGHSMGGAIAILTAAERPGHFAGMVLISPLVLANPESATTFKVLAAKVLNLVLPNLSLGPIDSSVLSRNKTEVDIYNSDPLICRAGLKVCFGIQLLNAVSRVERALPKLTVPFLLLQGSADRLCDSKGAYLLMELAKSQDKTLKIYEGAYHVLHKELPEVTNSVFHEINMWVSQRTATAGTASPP
Assay: 4-NPA assay: MAGL inhibitory activity by hydrolysis of 4-nitrophenylacetate, absorbance at 405 nm
Format: biochemical
Conditions: 4-NPA assay (values without footnote [b])
Outline: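 Final assay: 1 nM MAGL and 300 μM 4-nitrophenylacetate in 50 mM Tris, 1 mM EDTA, at RT. Compounds (25 μM–1.7 nM, 3-fold steps) were preincubated 15 min with enzyme. A405 was read 5 min after substrate addition and again after 80 min; activity was taken as the difference between reads.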

Compound | IC50 [nM]
Cc1ccc2oc(N3CCN(C(=O)c4ccc(-c5noc(C(C)(C)C)n5)c(C)c4)CC3)nc2n1 [Example 56, [4-(5-tert-butyl-1,2,4-oxadiazol-3-yl)-3-methyl-phenyl]-[4-(5-methyloxazolo[4,5-b]pyridin-2-yl)piperazin-1-yl]methanone] | 11
Cc1cc(C(=O)N2CCN(c3nc4nc(Cl)ccc4o3)CC2)ccc1-c1noc(C(C)(C)C)n1 [Example 57, [4-(5-tert-butyl-1,2,4-oxadiazol-3-yl)-3-methyl-phenyl]-[4-(5-chlorooxazolo[4,5-b]pyridin-2-yl)piperazin-1-yl]methanone] | 5
Cc1ccc2oc(N3CCN(C(=O)c4ccc(-c5noc(C(C)(C)C)n5)c(F)c4)CC3)nc2n1 [Example 58, [4-(5-tert-butyl-1,2,4-oxadiazol-3-yl)-3-fluoro-phenyl]-[4-(5-methyloxazolo[4,5-b]pyridin-2-yl)piperazin-1-yl]methanone] | 43
Cc1ccc2oc(N3CCN(C(=O)c4ccc(-c5noc(C(C)(C)C)n5)nc4)CC3)nc2n1 [Example 62, [6-(5-tert-butyl-1,2,4-oxadiazol-3-yl)-3-pyridyl]-[4-(5-methyloxazolo[4,5-b]pyridin-2-yl)piperazin-1-yl]methanone] | 871
CC(C)(C)c1cn(-c2ccc(C(=O)N3CCN(c4nc5nc(Cl)ccc5o4)CC3)cc2)cn1 [Example 63, [4-(4-tert-butylimidazol-1-yl)phenyl]-[4-(5-chlorooxazolo[4,5-b]pyridin-2-yl)piperazin-1-yl]methanone] | 20
Cc1ccc2oc(N3CCN(C(=O)c4ccc(OCC(C)(C)C)c(C)c4)CC3)nc2n1 [Example 65, [4-(2,2-dimethylpropoxy)-3-methyl-phenyl]-[4-(5-methyloxazolo[4,5-b]pyridin-2-yl)piperazin-1-yl]methanone] | 11
Cc1ccc2oc(N3CCN(C(=O)c4ccc(C5(C)COC5)cc4)CC3)nc2n1 [Example 67, (4-(5-methyloxazolo[4,5-b]pyridin-2-yl)piperazin-1-yl)(4-(3-methyloxetan-3-yl)phenyl)methanone] | 367
CC1(COc2ccc(C(=O)N3CCN(c4nc5nc(Cl)ccc5o4)CC3)cc2F)CC1 [Example 69, [4-(5-chlorooxazolo[4,5-b]pyridin-2-yl)piperazin-1-yl]-[3-fluoro-4-[(1-methylcyclopropyl)methoxy]phenyl]methanone] | 108
Cc1ccc2oc(N3CCN(C(=O)c4ccc(OCC5(C)CC5)c(F)c4)CC3)nc2n1 [Example 71, [3-fluoro-4-[(1-methylcyclopropyl)methoxy]phenyl]-[4-(5-methyloxazolo[4,5-b]pyridin-2-yl)piperazin-1-yl]methanone] | 382
CC(C)(C)c1ncn(-c2ccc(C(=O)N3CCN(c4nc5nc(Cl)ccc5o4)CC3)cc2)n1 [Example 72, [4-(3-tert-butyl-1,2,4-triazol-1-yl)phenyl]-[4-(5-chlorooxazolo[4,5-b]pyridin-2-yl)piperazin-1-yl]methanone] | 27
Cn1c(CC(C)(C)C)nnc1-c1ccc(C(=O)N2CCN(c3nc4nc(Cl)ccc4o3)CC2)cc1 [Example 73, [4-(5-chlorooxazolo[4,5-b]pyridin-2-yl)piperazin--yl]-[4-[5-(2,2-dimethylpropyl)-4-methyl-1,2,4-triazol-3-yl]phenyl]methanone] | 409
Cc1ccc2oc(N3CCN(C(=O)c4cnc(OCC5(C(F)(F)F)CC5)c(C)c4)CC3)nc2n1 [Example 143, (5-methyl-6-((1-(trifluoromethyl)cyclopropyl)methoxy)pyridin-3-yl)(4-(5-methyloxazolo[4,5-b]pyridin-2-yl)piperazin-1-yl)methanone] | 77
O=C(c1cnc(OCC2(C(F)(F)F)CC2)c(F)c1)N1CCN(c2nc3nc(Cl)ccc3o2)CC1 [Example 144, (4-(5-chlorooxazolo[4,5-b]pyridin-2-yl)piperazin-1-yl)(5-fluoro-6-((1-(trifluoromethyl)cyclopropyl)methoxy)pyridin-3-yl)methanone] | 105
Cc1ccc2oc(N3CCN(C(=O)c4cnc(OCC5(C)CC5)c(Cl)c4)CC3)nc2n1 [Example 146, (5-chloro-6-((1-methylcyclopropyl)methoxy)pyridin-3-yl)(4-(5-methyloxazolo[4,5-b]pyridin-2-yl)piperazin-1-yl)methanone] | 135
Cc1ccc2oc(N3CCN(C(=O)c4cnc(OCC5(C(F)(F)F)CC5)c(Cl)c4)CC3)nc2n1 [Example 147, (5-chloro-6-((1-(trifluoromethyl)cyclopropyl)methoxy)pyridin-3-yl)(4-(5-methyloxazolo[4,5-b]pyridin-2-yl)piperazin-1-yl)methanone] | 128
Cc1ccc2oc(N3CCN(C(=O)c4cc(Cl)cc(N5CCC(F)(F)CC5)c4)CC3)nc2n1 [Example 177, [3-chloro-5-(4,4-difluoropiperidin-1-yl)phenyl]-[4-(5-methyl-[1,3]oxazolo[4,5-b]pyridin-2-yl)piperazin-1-yl]methanone] | 3160
Cc1ccc2oc(N3CCN(C(=O)c4cc(Cl)cc(N5CCC(CO)CC5)c4)CC3)nc2n1 [Example 178, [3-chloro-5-[4-(hydroxymethyl)piperidin-1-yl]phenyl]-[4-(5-methyl-[1,3]oxazolo[4,5-b]pyridin-2-yl)piperazin-1-yl]methanone] | 2490
Cc1ccc2oc(N3CCN(C(=O)c4cc(Cl)cc(N5CC6(CC(O)C6)C5)c4)CC3)nc2n1 [Example 179, [3-chloro-5-(6-hydroxy-2-azaspiro[3.3]heptan-2-yl)phenyl]-[4-(5-methyl-[1,3]oxazolo[4,5-b]pyridin-2-yl)piperazin-1-yl]methanone] | 3940
Cc1ccc2oc(N3CCN(C(=O)c4ccc(N5CC6(CCCC6)C5)c(-c5ncc[nH]5)c4)CC3)nc2n1 [Example 180, [4-(2-azaspiro[3.4]octan-2-yl)-3-(1H-imidazol-2-yl)phenyl]-[4-(5-methyl-[1,3]oxazolo[4,5-b]pyridin-2-yl)piperazin-1-yl]methanone] | 810
Cc1ccc2oc(N3CCN(C(=O)c4cc(Cl)cc(-c5ccc(CO)cc5)c4)CC3)nc2n1 [Example 181, [3-chloro-5-[4-(hydroxymethyl)phenyl]phenyl]-[4-(5-methyl-[1,3]oxazolo[4,5-b]pyridin-2-yl)piperazin-1-yl]methanone] | 180

Continued by falling IC50, values first:

IC50 [nM] | Compound
4180 | Cc1ccc2oc(N3CCN(C(=O)c4ccc(C5(F)CC5)cc4)CC3)nc2n1 [Example 68, (4-(1-fluorocyclopropyl)phenyl)(4-(5-methyloxazolo[4,5-b]pyridin-2-yl)piperazin-1-yl)methanone]
4150 | CC(=O)N1CCN(c2cc(Cl)cc(C(=O)N3CCN(c4nc5nc(C)ccc5o4)CC3)c2)CC1 [Example 176, 1-[4-[3-chloro-5-[4-(5-methyl-[1,3]oxazolo[4,5-b]pyridin-2-yl)piperazine-1-carbonyl]phenyl]piperazin-1-yl]ethanone]
1520 | Cc1ccc2oc(N3CCN(C(=O)c4cc(Cl)cc(N5CCS(=O)(=O)CC5)c4)CC3)nc2n1 [Example 175, [3-chloro-5-(1,1-dioxo-1,4-thiazinan-4-yl)phenyl]-[4-(5-methyl-[1,3]oxazolo[4,5-b]pyridin-2-yl)piperazin-1-yl]methanone]
272 | CC(C)(C)c1nc(-c2ccc(C(=O)N3CCN(c4nc5nc(Cl)ccc5o4)CC3)cn2)no1 [Example 61, [6-(5-tert-butyl-1,2,4-oxadiazol-3-yl)-3-pyridyl]-[4-(5-chlorooxazolo[4,5-b]pyridin-2-yl)piperazin-1-yl]methanone]
216 | CC1(COc2ncc(C(=O)N3CCN(c4nc5nc(Cl)ccc5o4)CC3)cc2F)CC1 [Example 145, (4-(5-chlorooxazolo[4,5-b]pyridin-2-yl)piperazin-1-yl)(5-fluoro-6-((1-methylcyclopropyl)methoxy)pyridin-3-yl)methanone]
106 | Cc1ccc2oc(N3CCN(C(=O)c4cnc(OCC5(C)CC5)c(C)c4)CC3)nc2n1 [Example 142, (5-methyl-6-((1-methylcyclopropyl)methoxy)pyridin-3-yl)(4-(5-methyloxazolo[4,5-b]pyridin-2-yl)piperazin-1-yl)methanone]
87 | Cc1ccc2oc(N3CCN(C(=O)c4ccc(OCC5(C)CC5)c(Cl)c4)CC3)nc2n1 [Example 66, [3-chloro-4-[(1-methylcyclopropyl)methoxy]phenyl]-[4-(5-methyloxazolo[4,5-b]pyridin-2-yl)piperazin-1-yl]methanone]
46 | CC1(COc2ccc(C(=O)N3CCN(c4nc5nc(Cl)ccc5o4)CC3)cc2Cl)CC1 [Example 60, [3-chloro-4-[(1-methylcyclopropyl)methoxy]phenyl]-[4-(5-chlorooxazolo[4,5-b]pyridin-2-yl)piperazin-1-yl]methanone]
43 | Cc1ccc2oc(N3CCN(C(=O)c4ccc(-n5cnc(C(C)(C)C)n5)cc4)CC3)nc2n1 [Example 70, [4-(3-tert-butyl-1,2,4-triazol-1-yl)phenyl]-[4-(5-methyloxazolo[4,5-b]pyridin-2-yl)piperazin-1-yl]methanone]
15 | CC(C)(C)c1nc(-c2ccc(C(=O)N3CCN(c4nc5nc(Cl)ccc5o4)CC3)cc2F)no1 [Example 59, [4-(5-tert-butyl-1,2,4-oxadiazol-3-yl)-3-fluoro-phenyl]-[4-(5-chlorooxazolo[4,5-b]pyridin-2-yl)piperazin-1-yl]methanone]
5 | Cc1cc(C(=O)N2CCN(c3nc4nc(Cl)ccc4o3)CC2)ccc1OCC(C)(C)C [Example 64, [4-(5-chlorooxazolo[4,5-b]pyridin-2-yl)piperazin-1-yl]-[4-(2,2-dimethylpropoxy)-3-methyl-phenyl]methanone]
